In general, IC50 refers to the point on the concentration scale where inhibition reaches its midpoint. A high value points to weaker potency in that assay.

What all share (type): cell-based
One experiment addresses T1, human TLR7 (Homo sapiens, UniProt Q9NYK1).
T1 construct: host or cells: HEK-Blue cells
T1 sequence (Q9NYK1 27-1049): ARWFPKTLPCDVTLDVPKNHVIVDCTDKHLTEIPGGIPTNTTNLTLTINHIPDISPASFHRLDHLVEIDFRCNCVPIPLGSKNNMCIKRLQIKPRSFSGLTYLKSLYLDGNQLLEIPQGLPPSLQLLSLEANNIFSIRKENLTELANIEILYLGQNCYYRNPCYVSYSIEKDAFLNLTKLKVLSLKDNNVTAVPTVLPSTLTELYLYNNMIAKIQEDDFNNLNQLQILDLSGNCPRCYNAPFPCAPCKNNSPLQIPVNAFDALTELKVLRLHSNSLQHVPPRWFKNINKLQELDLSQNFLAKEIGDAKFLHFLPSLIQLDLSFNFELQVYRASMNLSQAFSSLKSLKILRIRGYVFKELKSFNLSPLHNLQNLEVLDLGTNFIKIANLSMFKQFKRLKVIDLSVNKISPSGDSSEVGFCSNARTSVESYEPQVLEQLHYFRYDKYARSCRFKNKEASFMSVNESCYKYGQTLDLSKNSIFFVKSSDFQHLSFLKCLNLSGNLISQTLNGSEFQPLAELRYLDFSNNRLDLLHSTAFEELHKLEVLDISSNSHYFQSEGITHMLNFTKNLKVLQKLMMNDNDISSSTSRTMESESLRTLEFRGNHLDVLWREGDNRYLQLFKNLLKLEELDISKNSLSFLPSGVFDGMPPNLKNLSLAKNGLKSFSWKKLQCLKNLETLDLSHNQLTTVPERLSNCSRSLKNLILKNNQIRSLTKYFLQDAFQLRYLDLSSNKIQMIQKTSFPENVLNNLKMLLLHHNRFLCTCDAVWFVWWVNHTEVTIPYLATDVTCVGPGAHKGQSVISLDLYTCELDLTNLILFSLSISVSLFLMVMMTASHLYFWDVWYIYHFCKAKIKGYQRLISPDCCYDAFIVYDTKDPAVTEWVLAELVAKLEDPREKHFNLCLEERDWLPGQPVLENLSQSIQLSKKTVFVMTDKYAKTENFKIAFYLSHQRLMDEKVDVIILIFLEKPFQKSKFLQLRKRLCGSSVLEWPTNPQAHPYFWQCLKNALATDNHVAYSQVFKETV
Kind of experiment: TLR7 inhibition reporter assay (HEK-Blue, SEAP). The conditions noted are these: HEK-Blue cells overexpressing human TLR7, gardiquimod 7.5 μM, 22 hour incubation. In a few lines:
(§1)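 Agonists used: gardiquimod 7.5 μM (TLR7), R848 15.9 μM (TLR8), ODN2006 5 nM (TLR9), added after 30 min room-temperature compound pre-treatment (0.05 nM–50 μM) of receptor-overexpressing HEK-Blue cells. SEAP reporter (NF-κB/AP-1 driven) read after 22 h at 37 °C; inhibition scaled between agonist+DMSO and reference-inhibitor wells.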
Background: In a reporter assay the amount or activity of a reporter protein is the signal.

The target of the next experiment is T2, human TLR8 (Homo sapiens, UniProt Q9NR97).
T2 construct: host or cells: HEK-Blue cells
T2 sequence (Q9NR97 27-1041): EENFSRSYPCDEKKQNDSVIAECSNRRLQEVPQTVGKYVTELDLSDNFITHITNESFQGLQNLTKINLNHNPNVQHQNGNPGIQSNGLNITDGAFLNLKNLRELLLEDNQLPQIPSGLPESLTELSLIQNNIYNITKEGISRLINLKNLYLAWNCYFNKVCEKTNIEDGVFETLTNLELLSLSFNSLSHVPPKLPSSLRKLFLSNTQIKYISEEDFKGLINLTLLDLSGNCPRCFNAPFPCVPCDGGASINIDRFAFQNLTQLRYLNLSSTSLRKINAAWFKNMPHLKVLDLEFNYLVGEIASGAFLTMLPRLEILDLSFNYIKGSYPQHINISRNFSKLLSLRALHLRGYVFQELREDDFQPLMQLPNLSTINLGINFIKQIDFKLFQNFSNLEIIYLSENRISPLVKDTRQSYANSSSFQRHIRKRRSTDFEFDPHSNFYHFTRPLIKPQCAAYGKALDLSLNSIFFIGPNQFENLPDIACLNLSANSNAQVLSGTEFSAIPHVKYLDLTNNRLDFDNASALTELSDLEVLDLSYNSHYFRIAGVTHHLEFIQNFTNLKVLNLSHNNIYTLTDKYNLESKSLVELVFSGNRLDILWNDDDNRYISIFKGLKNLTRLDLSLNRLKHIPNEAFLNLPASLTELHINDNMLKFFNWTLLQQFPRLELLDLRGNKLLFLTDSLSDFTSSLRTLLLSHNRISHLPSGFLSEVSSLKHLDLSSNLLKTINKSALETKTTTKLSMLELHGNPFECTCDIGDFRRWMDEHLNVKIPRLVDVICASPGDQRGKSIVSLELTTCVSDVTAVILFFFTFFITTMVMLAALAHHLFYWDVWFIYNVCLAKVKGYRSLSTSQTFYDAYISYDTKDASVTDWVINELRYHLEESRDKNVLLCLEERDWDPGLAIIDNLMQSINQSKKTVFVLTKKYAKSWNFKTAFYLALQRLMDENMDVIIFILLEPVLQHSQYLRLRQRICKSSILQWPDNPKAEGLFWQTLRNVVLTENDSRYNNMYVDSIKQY
Kind of experiment: TLR8 inhibition reporter assay (HEK-Blue, SEAP). Particulars: HEK-Blue cells overexpressing human TLR8, R848 15.9 μM, 22 hour incubation. The essentials: as §1

For a further experiment, the target named is T3, human TLR9 (Homo sapiens, UniProt Q9NR96).
T3 construct: host or cells: HEK-Blue cells
T3 sequence (Q9NR96 26-1032): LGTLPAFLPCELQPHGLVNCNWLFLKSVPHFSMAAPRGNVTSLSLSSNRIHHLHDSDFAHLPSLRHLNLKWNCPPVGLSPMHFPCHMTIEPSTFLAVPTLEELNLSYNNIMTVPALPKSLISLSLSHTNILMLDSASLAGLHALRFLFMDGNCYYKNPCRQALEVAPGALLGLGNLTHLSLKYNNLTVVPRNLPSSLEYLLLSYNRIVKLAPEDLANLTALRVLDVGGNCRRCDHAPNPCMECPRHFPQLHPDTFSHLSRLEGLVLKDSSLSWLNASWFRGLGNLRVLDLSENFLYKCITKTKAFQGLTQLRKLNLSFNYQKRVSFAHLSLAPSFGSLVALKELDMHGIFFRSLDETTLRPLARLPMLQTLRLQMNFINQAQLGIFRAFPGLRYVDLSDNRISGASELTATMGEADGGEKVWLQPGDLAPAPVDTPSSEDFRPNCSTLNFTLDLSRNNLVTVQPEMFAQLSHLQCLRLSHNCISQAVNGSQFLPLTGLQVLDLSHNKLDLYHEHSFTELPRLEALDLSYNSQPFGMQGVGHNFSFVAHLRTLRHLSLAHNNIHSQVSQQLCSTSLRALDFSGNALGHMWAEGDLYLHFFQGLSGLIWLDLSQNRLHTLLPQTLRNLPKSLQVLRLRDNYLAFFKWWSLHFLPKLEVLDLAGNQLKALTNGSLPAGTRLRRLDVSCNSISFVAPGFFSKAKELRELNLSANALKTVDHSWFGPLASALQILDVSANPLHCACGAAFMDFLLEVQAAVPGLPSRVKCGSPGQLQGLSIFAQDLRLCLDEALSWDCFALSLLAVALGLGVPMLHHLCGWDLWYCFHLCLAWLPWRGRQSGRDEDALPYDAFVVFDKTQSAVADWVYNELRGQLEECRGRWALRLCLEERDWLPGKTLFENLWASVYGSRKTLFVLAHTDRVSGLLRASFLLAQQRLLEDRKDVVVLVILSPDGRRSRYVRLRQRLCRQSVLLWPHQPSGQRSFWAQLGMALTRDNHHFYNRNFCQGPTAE
The experiment can be described thus: TLR9 inhibition reporter assay (HEK-Blue, SEAP). The conditions noted are these: HEK-Blue cells overexpressing human TLR9, ODN2006 5 nM, 22 hour incubation. The essentials: as §1

Take `Cc1c(-c2[nH]c3ccc(C4CCN(CCN5CCOC5=O)CC4)cc3c2C(C)C)cn2cnnc2c1C` [Example 56, 3-(2-(4-(2-(7,8-dimethyl-[1,2,4]triazolo[4,3-a]pyridin-6-yl)-3-isopropyl-1H-indol-5-yl)piperidin-1-yl)ethyl)oxazolidin-2-one]: the figures for the IC50 at human TLR7, against human TLR8 and on human TLR9 were 0.5 nM, 7.9 nM and 196 nM, respectively.
In the same order, the values of `Cc1c(-c2[nH]c3ccc(C4CCN(CCN5CCCC5=O)CC4)cc3c2C(C)C)cn2cnnc2c1C` [Example 57, 1-(2-(4-(2-(7,8-dimethyl-[1,2,4]triazolo[4,3-a]pyridin-6-yl)-3-isopropyl-1H-indol-5-yl)piperidin-1-yl)ethyl) pyrrolidin-2-one] are 5 nM, 13 nM and 1300 nM.
The like results for `Cc1cc(-c2[nH]c3ccc(C4CCN(CC(C)(C)O)CC4)cc3c2C(C)C)cn2cnnc12` [Example 58, 1-(4-(3-isopropyl-2-(8-methyl-[1,2,4]triazolo[4,3-a]pyridin-6-yl)-1H-indol-5-yl)piperidin-1-yl)-2-methylpropan-2-ol] were, in that order, 0.8 nM, 0.9 nM and 1750 nM.
On to `Cc1cc(-c2[nH]c3ccc(C4CCN(CC(C)(C)O)CC4)cc3c2C(C)C)c(C)n2cnnc12` [Example 59, 1-(4-(2-(5,8-dimethyl-[1,2,4]triazolo[4,3-a]pyridin-6-yl)-3-isopropyl-1H-indol-5-yl)piperidin-1-yl)-2-methylpropan-2-ol], for which the IC50 was determined as 81.7 nM at human TLR7, 3.1 nM at human TLR8 and 3430 nM against human TLR9.
For the compound `Cc1c(-c2[nH]c3ccc(C4CCN(CC(C)(C)O)CC4)cc3c2C(C)C)cn2cnnc2c1C` [Example 60, 1-(4-(2-(7,8-dimethyl-[1,2,4]triazolo[4,3-a]pyridin-6-yl)-3-isopropyl-1H-indol-5-yl)piperidin-1-yl)-2-methylpropan-2-ol], the IC50 turned out to be 1.7 nM against human TLR7, 4.3 nM at human TLR8 and 2900 nM against human TLR9.
The like results for `Cc1c(-c2[nH]c3ccc(C4CCN(CC(C)(C)O)CC4)cc3c2C(C)C)cn2cnnc2c1Cl` [Example 61, 1-(4-(2-(8-chloro-7-methyl-[1,2,4]triazolo [4,3-a]pyridin-6-yl)-3-isopropyl-1H-indol-5-yl)piperidin-1-yl)-2-methylpropan-2-ol] were, in that order, 0.9 nM, 4.6 nM and 2270 nM.
In the same order, the values of `Cc1cc(-c2[nH]c3ccc(C4CCN(C5COC5)CC4)cc3c2C(C)C)cn2cnnc12` [Example 63, 6-(3-isopropyl-5-(1-(oxetan-3-yl)piperidin-4-yl)-1H-indol-2-yl)-8-methyl-[1,2,4]triazolo[4,3-a]pyridine] are 1.7 nM, 7.6 nM and 10800 nM.
For `CC(C)c1c(-c2ccc3nncn3c2)[nH]c2ccc(C3CCN(C4CCOCC4)CC3)cc12` [Example 64, 6-(3-isopropyl-5-(1-(tetrahydro-2H-pyran-4-yl)piperidin-4-yl)-1H-indol-2-yl)-[1,2,4]triazolo[4,3-a]pyridine], the IC50 against human TLR7 was 24.7 nM; against human TLR8, 147 nM; on human TLR9 it was 677 nM.
Consider `CC(C)c1c(-c2ccc3nncn3c2)[nH]c2ccc(C3CCN(C4COC4)CC3)cc12` [Example 65, 6-(3-isopropyl-5-(1-(oxetan-3-yl)piperidin-4-yl)-1H-indol-2-yl)-[1,2,4]triazolo[4,3-a]pyridine], for which the concentration for half-maximal inhibition (IC50) turned out to be 21.8 nM on human TLR7, 341 nM against human TLR8 and 15100 nM against human TLR9.
The like results for `Cc1cc2nncn2cc1-c1[nH]c2ccc(C3CCN(C4COC4)CC3)cc2c1C(C)C` [Example 66, 6-(3-isopropyl-5-(1-(oxetan-3-yl)piperidin-4-yl)-1H-indol-2-yl)-7-methyl-[1,2,4]triazolo[4,3-a]pyridine] were, in that order, 55.5 nM, 1030 nM and 18600 nM.
In the same order, the values of `Cc1nnc2ccc(-c3[nH]c4ccc(C5CCN(C6COC6)CC5)cc4c3C(C)C)cn12` [Example 67, 6-(3-isopropyl-5-(1-(oxetan-3-yl)piperidin-4-yl)-1H-indol-2-yl)-3-methyl-[1,2,4]triazolo[4,3-a]pyridine] are 60.3 nM, 16.6 nM and 10100 nM.
Consider `Cc1cc2nncn2cc1-c1[nH]c2ccc(C3CCN(C4CCOCC4)CC3)cc2c1C(C)C` [Example 68, 6-(3-isopropyl-5-(1-(tetrahydro-2H-pyran-4-yl)piperidin-4-yl)-1H-indol-2-yl)-7-methyl-[1,2,4]triazolo[4,3-a] pyridine], for which the half-maximal inhibitory concentration (IC50) at human TLR7 amounted to 20.7 nM; on human TLR8, 139 nM; against human TLR9, 1250 nM.

The values are drawn from patent US11130756B2, “[1,2,4]Triazolo[4,3-A]pyridinyl substituted indole compounds” (BRISTOL-MYERS SQUIBB COMPANY, priority 2017, dated 2021).
